Source: the supplement of paper PMC5412046
Where a name gives a salt, the structure may show the parent alone.

Tests used:
[1] = test system: SB.mhdgc-1; assay: viability at highest tested concentration (MAXR) relative to DMSO; higher = less cytotoxic; conditions: SB.mhdgc-1 (hereditary c.1380delA CDH1 gastric cancer)
Procedure, shortened: (§1)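 In 1536-well plates, each well held 500 gastric cancer cells of hereditary or sporadic patient origin in 5 μL medium. Compound in DMSO (23 nL, pintool) was added at 11 concentrations spaced threefold apart, and the top concentration was noted per compound. Luminescence was read on a ViewLux after a 48 h incubation and a 30 min room-temperature treatment with CellTiter-Glo. Figures give viability normalised to DMSO, either at the highest concentration or as trapezoidal area under the curve.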

[2] = test system: SB.msgc-1; assay: as above; conditions: SB.msgc-1 (sporadic gastric cancer)
Procedure, shortened: as §1

[3] = test system: SB.mhdgc-1; assay: area under the dose-response curve of % viability (trapezoidal, 11 doses) (% viability x log10 concentration); higher = less cytotoxic; conditions: SB.mhdgc-1 (hereditary c.1380delA CDH1 gastric cancer)
Procedure, shortened: as §1

[4] = test system: SB.msgc-1; assay: as above; conditions: SB.msgc-1 (sporadic gastric cancer)
Procedure, shortened: as §1

SMILES | viability [1] [%] | viability [2] [%] | area under the dose-response curve [3] | area under the dose-response curve [4]
OC[C@H]1O[C@@H](O[C@@H]2[C@@H](CO)OC(O)(CO)[C@H]2O)[C@H](O)[C@@H](O)[C@H]1O (mixture of isomers) [Lactulose] (top concentration 46.0829 µM) | 47.3 | 86.5 | 496 | 503
C\C1=C(\C=C(\C#N)C(=O)N1)C2=CC=NC=C2 [Milrinone] (top concentration 46.0829 µM) | 11.8 | 44.2 | 544 | 475
CC(C)c1ccc2c(c1)c(SC(C)(C)C)c(CC(C)(C)C(=O)[O-])n2Cc1ccc(Cl)cc1 [MK-886] (top concentration 46.0829 µM) | 25.9 | 19 | 473 | 331
COc1ccc([S+](=O)([O-])Nc2cccnc2Nc2ccc(O)cc2)cc1 [E-7010] (top concentration 46.0829 µM) | 47 | 40.2 | 474 | 378
CCOC(=O)C(C)OC1=CC=CC2=C1\C=C/N(CC(=O)NC3=CC=C4OCCOC4=C3)C2=O (configuration not stated) (top concentration 46.0829 µM) | 111 | 28.1 | 564 | 273
N[S+](=O)([O-])c1ccc(Nc2nc(OCC3CCCCC3)c3[nH]cnc3n2)cc1 [NU-6102] (top concentration 46.0829 µM) | 42.7 | 69.2 | 496 | 537
N/C(=N\C(=O)c1nc(Cl)c(N)nc1N)NCc1ccccc1 [Benzamil] (top concentration 46.0829 µM) | 3.54 | 2.75 | 405 | 316
C1CN\2C[C@@H](\N=C2S1)C3=CC=CC=C3 [L-tetramisol] (top concentration 46.0829 µM) | 130 | 91.3 | 564 | 442
Cc1ccccc1C(=O)c1ccc(Nc2ccc(Br)cc2N)cc1Cl [EO-1428] (top concentration 46.0829 µM) | 53.6 | 70.2 | 525 | 528
CC(=O)N1CCN(c2ccc(OC[C@H]3CO[C@](Cn4ccnc4)(c4ccc(Cl)cc4Cl)O3)cc2)CC1 [Ketoconazole] (top concentration 46.0829 µM) | 49.6 | 53.7 | 532 | 536
O[C@@H]1[C@@H](O)[C@H](O[C@@H]([C@H]1O)C(O)=O)OC2=C(O)C(=C3C(=O)\C=C(/OC3=C2)C4=CC=CC=C4)O [Baicalin] (top concentration 46.0829 µM) | 91.1 | 84.5 | 578 | 511
Cc1c(N)nc([C@H](CC(N)=O)NC[C@@H](N)C(N)=O)nc1C(=O)N[C@H](C(=O)N[C@@H](C)[C@H](O)[C@@H](C)C(=O)N[C@@H](C(=O)NCCc1nc(-c2nc(C(=O)NCCC[S+](C)C)cs2)cs1)[C@@H](C)O)C(O[C@H]1O[C@H](CO)[C@H](O)[C@@H](O)[C@H]1O[C@H]1O[C@H](CO)[C@@H](O)[C@H](OC(N)=O)[C@@H]1O)c1c[nH]cn1 (some centres not stated) [Bleomycin sulfate] (top concentration 46.0829 µM) | 49.9 | 55.3 | 451 | 425
ClC1=CC\2=C(NC(=O)\C(=C2N[C@@H]3CN4CCC3CC4)C5=NC6=C([NH]5)C=CC=C6)C=C1 [CHIR-124] (top concentration 46.0829 µM) | 5.59 | 13.9 | 340 | 355
C=C(C)[C@@H]1CC[C@]2(C)CC[C@]3(C)[C@H](CC[C@@H]4[C@@]5(C)CC[C@H](O)C(C)(C)[C@@H]5CC[C@]43C)[C@@H]12 [Lupeol] (top concentration 46.0829 µM) | 134 | 108 | 609 | 522
C[N]1C=C(C2=CC=CC=C12)\C3=C(\C(=O)NC3=O)C4=C[N](C5CCN(CC5)CC6=NC=CC=C6)C7=C4C=CC=C7 [Enzastaurin] (top concentration 46.0829 µM) | 37.4 | 31.4 | 447 | 486
CC(C)n1c(/C=C/[C@H](O)C[C@H](O)CC(=O)[O-])c(-c2ccc(F)cc2)c2ccccc21 [Fluvastatin] (top concentration 46.0829 µM) | 71.4 | 77.9 | 445 | 504
FC(F)(F)c1ccc(/C=C/c2nc(COc3ccc(CCCCn4ccnn4)cc3)co2)cc1 [Mubritinib] (top concentration 46.0829 µM) | 48.8 | 28.4 | 368 | 241
NC(=O)Nc1sc(-c2ccc(F)cc2)cc1C(N)=O [TPCA-1] (top concentration 46.0829 µM) | 3.19 | 48.3 | 298 | 446
COC1=C(N2CCNC(C)C2)C(=CC3=C1N(\C=C(C(O)=O)/C3=O)C4CC4)F (configuration not stated) [Gatifloxacin] (top concentration 46.0829 µM) | 90.4 | 90.3 | 534 | 517
CC[C@H]1CN2CCc3cc(OC)c(OC)cc3[C@@H]2C[C@@H]1C[C@H]1NCCc2cc(OC)c(OC)cc21 [Emetine] (top concentration 46.0829 µM) | 25.4 | 51.9 | 393 | 390
COc1ccc(-c2cc3nccn3c(Nc3ncccc3C(N)=O)n2)cc1OC [BAY61-3606] (top concentration 46.0829 µM) | 59.1 | 25.8 | 496 | 434
COc1cc2nc(-c3cc(F)ccc3O)nc(N[C@@H]3CNC[C@H]3C(C)(C)O)c2cc1OC (top concentration 46.0829 µM) | 3.32 | 24.8 | 384 | 469

SMILES | viability [1] [%] | viability [2] [%] | area under the dose-response curve [3] | area under the dose-response curve [4]
N[S+](=O)([O-])c1cccc2c1C(=O)c1cccc(O)c1C2=O [LLL-12] (top concentration 46.0829 µM) | 3.33 | 2.09 | 240 | 274
CN(C(Cc1ccc(O[S+](=O)([O-])c2cccc3cnccc23)cc1)C(=O)N1CCN(c2ccccc2)CC1)[S+](=O)([O-])c1cccc2cnccc12 (configuration not stated) [KN-62] (top concentration 46.0829 µM) | 36.3 | 54.6 | 374 | 459
C=CCc1cccc(/C=N/NC(=O)CN2CCN(Cc3ccccc3)CC2)c1O [PAC-1] (top concentration 46.0829 µM) | 13.1 | 20.4 | 521 | 445
NCCc1ccc(O)c(O)c1 [Dopamine HCl] (top concentration 46.0829 µM) | 49 | 83.3 | 524 | 545
CC[C@]12\C=C/CN3CC[C@]4([C@@H](N(C)C5=CC(=C(C=C45)[C@]6(C[C@H]7C[C@H](CN(C7)CC8=C6[NH]C9=C8C=CC=C9)C(C)(F)F)C(=O)OC)OC)[C@](O)([C@@H]1OC(C)=O)C(=O)OC)[C@H]23 [Vinflunine] (top concentration 46.0829 µM) | 8.01 | 17.2 | 265 | 267
COC1=CC=C(C=C1)C/2=C(OC3O[C@@H](C)[C@H](O)[C@@H](O)[C@H]3O)/C(=O)C4=C(O2)C(=C(OC5O[C@H](CO)[C@@H](O)[C@H](O)[C@H]5O)C=C4O)CC=C(C)C (some centres not stated) [Icariin] (top concentration 46.0829 µM) | 13.3 | 31.4 | 475 | 497
CN1CCN2c3ccccc3Cc3ccccc3C2C1 (configuration not stated) [Mianserin hydrochloride] (top concentration 46.0829 µM) | 80.8 | 94 | 508 | 536
C[C@@]12C[C@@]3(O)O[C@@H](O1)[C@]1(COC(=O)c4ccccc4)[C@H]3C[C@@]12O[C@@H]1O[C@H](CO)[C@@H](O)[C@H](O)[C@H]1O [Paeoniflorin] (top concentration 46.0829 µM) | 108 | 114 | 500 | 500
COc1ccc(Cn2ccc3ccc(C(=O)NO)cc32)cc1 (top concentration 46.0829 µM) | 101 | 78.3 | 559 | 493
NC(=O)NO [Hydroxyurea] (top concentration 46.0829 µM) | 55.3 | 42.4 | 409 | 348
C[C@@H]1CN(Cc2ccc(F)cc2)[C@@H](C)CN1C(=O)c1cc2c(C(=O)C(=O)N(C)C)cn(C)c2cc1Cl [Talmapimod] (top concentration 46.0829 µM) | 41.1 | 74.1 | 441 | 490
COc1cc(C)c(Sc2cnc(NC(=O)c3ccc(CNC(C)C(C)C)cc3)s2)cc1C(=O)N1CCN(C(C)=O)CC1 (configuration not stated) [ITK inhibitor] (top concentration 46.0829 µM) | 37.2 | 62.7 | 454 | 522
CCCCCCNC(=O)N1\C=C(F)/C(=O)NC1=O [Carmofur] (top concentration 46.0829 µM) | 47.9 | 50.4 | 442 | 485
CC(C)(C)c1nc(-c2cccc(N[S+](=O)([O-])c3c(F)cccc3F)c2F)c(-c2ccnc(N)n2)s1 [Dabrafenib] (top concentration 46.0829 µM) | 15 | 38.3 | 442 | 484
COc1ccc2c(c1OC)CN1CCc3cc4c(cc3C1C2)OCO4 (configuration not stated) [Tetrahydroberberine Canadine] (top concentration 46.0829 µM) | 72.5 | 23.9 | 550 | 292
O=C(Nc1c(Cl)cncc1Cl)c1ccc(OC(F)F)c(OCC2CC2)c1 [Roflumilast] (top concentration 46.0829 µM) | 90.6 | 85.9 | 528 | 558
O=C(O)c1ccc2c(c1)nc(Nc1cccc(Cl)c1)c1ccncc12 [Silmitasertib] (top concentration 46.0829 µM) | 32.9 | 28.5 | 565 | 491
O=C(O)c1ccc(-n2nc(-c3ccccc3O)nc2-c2ccccc2O)cc1 [Deferasirox] (top concentration 46.0829 µM) | 58.3 | 39.1 | 536 | 478
CCn1nnc2c(N3CCOCC3)nc(-c3ccc(NC(=O)Nc4ccc(C(=O)N5CCN(C)CC5)cc4)cc3)nc21 [PKI-402] (top concentration 46.0829 µM) | 2.9 | 36.7 | 287 | 405
CC(=O)SC[C@@H](C)C(=O)N1CCC[C@H]1C(=O)N[C@@H](Cc1ccccc1)C(=O)O [Alacepril] (top concentration 46.0829 µM) | 128 | 92.2 | 599 | 435
CC/C(=C(/CC)c1ccc(O)cc1)c1ccc(O)cc1 [Diethylstilbestrol] (top concentration 46.0829 µM) | 10.1 | 39 | 404 | 448
